Laboratory results reported in patent US20070191335A1, “Heterocylic antiviral compounds” (priority 2006, published 2007).
pIC50: −log10 of the molar value. Where a name gives a salt, the structure may show the parent alone.

Biological target: T1, CCR5 (Homo sapiens, UniProt P51681)
T1 construct: host or cells: CEM-NKr-CCR5-Luc
Test: CCR5-Mediated CCF Assay
Format: cell-based
Settings: Hela-R5 cells (gp160) co-cultured 24 hrs with CEM-NKr-CCR5-Luc cells, luciferase readout
Method: CCF assay was performed as described before (C. Ji, J. Zhang, N. Cammack and S. Sankuratri 2006 J. Biomol. Screen. in press). Hela-R5 cells (express gp160 from R5-tropic virus and HIV-1 T at) were plated in 384 well white culture plates (BD Bioscience, Palo Alto, Calif.) at 7.5×10^3 cells per well in phenol red-free Dulbecco's Modified Eagle Medium (DMEM) supplemented with 10% FBS, 1× Pen-Strep, 300 μg/ml G418, 100 μg/ml hygromycin, and 1 μg/ml doxycycline (Dox) (BD Bioscience, Palo Alto, Calif.), using Multimek (Beckman, Fullerton, Calif.) and incubated at 37° C. overnight to induce the expression of gp160. Ten μl diluted compounds in medium containing 5% DMSO were added to the cells, followed by the addition of CEM-NKr-CCR5-Luc (obtained from NIH AIDS Research & Reference Reagents Program) that expresses CD4 and CCR5 and carries a HIV-2 long terminal repeat (LTR)-driven luciferase reporter gene at 1.5×10^4 cells/15 μl/well and incubated for 24 hrs. At the end of co-culture, 15 μl of Steady-Glo luciferase substrate was added into each well, and the cultures were sealed and gently shaken for 45 min. The luciferase activity were measured for 10 sec per well as luminescence by using 16-channel TopCount NXT (PerkinElmer, Shelton, Conn.) with 10 min dark adaptation and the readout is count per second (CPS). For the drug interaction experiments, small molecule compounds or antibodies were serially diluted in serum-free and phenol red-free RPMI containing 5% dimethyl sulfoxide (DMSO) (CalBiochem, La Jolla, Calif.) and 1× Pen-Strep. Five μl each of the two diluted compound or mAb to be tested for drug-drug interactions were added to the Hela-R5 cells right before the addition of target cells.

T1 sequence (P51681 whole entry): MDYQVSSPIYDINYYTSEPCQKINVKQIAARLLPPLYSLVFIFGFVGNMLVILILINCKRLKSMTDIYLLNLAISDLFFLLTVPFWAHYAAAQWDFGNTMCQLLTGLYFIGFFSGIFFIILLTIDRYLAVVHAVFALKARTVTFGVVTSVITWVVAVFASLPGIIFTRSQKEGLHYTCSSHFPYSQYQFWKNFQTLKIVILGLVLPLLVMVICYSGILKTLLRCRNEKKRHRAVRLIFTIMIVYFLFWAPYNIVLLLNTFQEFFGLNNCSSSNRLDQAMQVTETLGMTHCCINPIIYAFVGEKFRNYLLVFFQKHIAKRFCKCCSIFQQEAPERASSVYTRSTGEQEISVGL

First: Cc1nc(OCC(=O)OCc2ccccc2)nc(C)c1C(=O)N1CC2CN(CC[C@H](NC(=O)C3CCCC3)c3ccccc3)CC2C1 (stereo partly drawn) [Compound I-3, (5-{5-[(S)-3-(Cyclopentanecarbonyl-amino)-3-phenyl-propyl]-hexahydro-pyrrolo[3,4-c]pyrrole-2-carbonyl}-4,6-dimethyl-pyrimidin-2-yloxy)-acetic Acid Benzyl Ester]
Second: COC(=O)[C@@H](Oc1nc(C)c(C(=O)N2CC3CN(CC[C@H](NC(=O)C4CCCC4)c4ccccc4)CC3C2)c(C)n1)c1ccccc1 (stereo partly drawn) [Compound I-16, (S)-(5-{-5-[(S)-3-(Cyclopentanecarbonyl-amino)-3-phenyl-propyl]-hexahydro-pyrrolo[3,4-c]pyrrole-2-carbonyl}-4,6-dimethyl-pyrimidin-2-yloxy)-phenyl-acetic acid methyl ester]
The pIC50 of the first is 0.30 log units higher: 9.30 for the first, 9.00 for the second. The first is the more potent here.

Going from `Cc1nc(Oc2ccc(C(=O)OCc3ccccc3)cc2)nc(C)c1C(=O)N1CC2CN(CC[C@H](NC(=O)C3CCCC3)c3ccccc3)CC2C1` (stereo partly drawn) [Compound I-7, 4-(5-{5-[(S)-3-(Cyclopentanecarbonyl-amino)-3-phenyl-propyl]-hexahydro-pyrrolo[3,4-c]pyrrole-2-carbonyl}-4,6-dimethyl-pyrimidin-2-yloxy)-benzoic acid benzyl ester] to `Cc1nc(Oc2ccc(C(=O)O)cc2)nc(C)c1C(=O)N1CC2CN(CC[C@H](NC(=O)C3CCCC3)c3ccccc3)CC2C1` (stereo partly drawn) [Compound I-8, 4-(5-{5-[(S)-3-(cyclopentanecarbonyl-amino)-3-phenyl-propyl]-hexahydro-pyrrolo[3,4-c]pyrrole-2-carbonyl}-4,6-dimethyl-pyrimidin-2-yloxy)-benzoic acid trifluoro-acetate salt], the pIC50 falls from greater than 9.52 to 9.05.

First: CCOC(=O)c1cccc(Oc2nc(C)c(C(=O)N3CC4CN(CC[C@H](NC(=O)C5CCCC5)c5ccccc5)CC4C3)c(C)n2)c1 (stereo partly drawn) [Compound I-9, 3-(5-{5-[(S)-3-(Cyclopentanecarbonyl-amino)-3-phenyl-propyl]-hexahydro-pyrrolo[3,4-c]pyrrole-2-carbonyl}-4,6-dimethyl-pyrimidin-2-yloxy)-benzoic acid ethyl ester]
Second: Cc1nc(Oc2cccc(C(=O)O)c2)nc(C)c1C(=O)N1CC2CN(CC[C@H](NC(=O)C3CCCC3)c3ccccc3)CC2C1 (stereo partly drawn) [Compound I-10, 3-(5-{5-[(S)-3-(cyclopentanecarbonyl-amino)-3-phenyl-propyl]-hexahydro-pyrrolo[3,4-c]pyrrole-2-carbonyl}-4,6-dimethyl-pyrimidin-2-yloxy)-benzoic acid, trifluoro acetic acid salt]
The pIC50 of the first is higher: greater than 9.52 for the first, 8.96 for the second.

First: COc1nc(C)c(C(=O)N2CC3CN(CC[C@H](NC(=O)C4CCCC4)c4ccccc4)CC3C2)c(C)n1 (stereo partly drawn) [Compound I-19, Cyclopentanecarboxylic Acid {(S)-3-[5-(2-methoxy-4,6-dimethyl-pyrimidine-5-carbonyl)-hexahydro-pyrrolo[3,4-c]pyrrol-2-yl]-1-phenyl-propyl}-amide]
Second: Cc1nc(NS(C)(=O)=O)nc(C)c1C(=O)N1CC2CN(CC[C@H](NC(=O)C3CCCC3)c3ccccc3)CC2C1 (stereo partly drawn) [Compound I-42, Cyclopentanecarboxylic Acid {(S)-3-[5-(2-methanesulfonylamino-4,6-dimethyl-pyrimidine-5-carbonyl)-hexahydro-pyrrolo[3,4-c]pyrrol-2-yl]-1-phenyl-propyl}-amide]
The pIC50 of the first is lower: 9.40 for the first, greater than 9.52 for the second.

Compared with `Cc1nn(-c2ccc(C(F)(F)F)cn2)c(C)c1C(=O)N1CC2CN(CC[C@H](NC(=O)C3CCOC3)c3cccc(F)c3)CC2C1` (stereo partly drawn) [II-3, Tetrahydro-furan-3-carboxylic acid [(S)-3-{5-[3,5-dimethyl-1-(5-trifluoromethyl-pyridin-2-yl)-1H-pyrazole-4-carbonyl]-hexahydro-pyrrolo[3,4-c]pyrrol-2-yl}-1-(3-fluoro-phenyl)-propyl]-amide], `Cc1cc(=O)n(C)c(C)c1C(=O)N1CC2CN(CC[C@H](NC(=O)C3CCCC3)c3ccccc3)CC2C1` (stereo partly drawn) [III-13, Cyclopentanecarboxylic acid {(S)-1-phenyl-3-[-5-(1,2,4-trimethyl-6-oxo-1,6-dihydro-pyridine-3-carbonyl)-hexahydro-pyrrolo[3,4-c]pyrrol-2-yl]-propyl}-amide] is lower in pIC50: greater than 9.52 for the first, 8.85 for the second.

`Cc1cc(=O)n(C)c(C)c1C(=O)N1CC2CN(CC[C@H](NC(=O)C3CCC(F)(F)CC3)c3ccccc3)CC2C1` (stereo partly drawn) [III-15, 4,4-difluoro-cyclohexanecarboxylic acid {(S)-1-phenyl-3-[5-(1,2,4-trimethyl-6-oxo-1,6-dihydro-pyridine-3-carbonyl)-hexahydro-pyrrolo[3,4-c]pyrrol-2-yl]-propyl}-amide] gave a pIC50 of 8.96.

System: not given
Test: not given
Settings: not given

Work on `CCOC(=O)Cn1c(C)c(C(=O)N2CC3CN(CCCN(C(=O)C4CCN(C(C)=O)CC4)c4ccc(C)c(Cl)c4)CC3C2)c(C)cc1=O` (stereo not drawn) [III-1, [5-(5-{3-[(1-Acetyl-piperidine-4-carbonyl)-(3-chloro-4-methyl-phenyl)-amino]-propyl}-hexahydro-pyrrolo[3,4-c]pyrrole-2-carbonyl)-4,6-dimethyl-2-oxo-2H-pyridin-1-yl]-acetic acid ethyl ester] yielded a melting point of 88.2 to 89.1 °C.
